Assay results: patent US7166614B2, “Tetrahydropyranyl cyclopentyl tetrahydroisoquinoline modulators of chemokine receptor activity” (Merck & Co., Inc., priority 2002, dated 2007)

Assays:
[1] = Storage stability at room temperature (air oxidation, LC-MS); format: physicochemical; settings: stored in a scintillation vial at room temperature for three months; degradation by air oxidation; separation by reverse phase HPLC
Method: Separation by Gilson reverse phase HPLC provided two new products (Example 114 and 115) and 60% of the parent compound recovered. These compounds were analyzed by NMR and LC-MS to determine the structures.

CCR-2 receptor = target: T1, CCR-2 receptor (Homo sapiens, UniProt P41597); assay: CCR-2 binding assay (inhibition of 125I-MCP-1 binding); settings: cis isomer compared with trans isomer, resolved on preparation plate; assay not specified
T1 construct: the endogenous CCR-2 receptor on various cell types including monocytes, THP-1 cells; endogenous in cells; host or cells: monocytes, THP-1 cells (or eukaryotic cells expressing the cloned receptor)
T1 sequence (P41597 whole entry): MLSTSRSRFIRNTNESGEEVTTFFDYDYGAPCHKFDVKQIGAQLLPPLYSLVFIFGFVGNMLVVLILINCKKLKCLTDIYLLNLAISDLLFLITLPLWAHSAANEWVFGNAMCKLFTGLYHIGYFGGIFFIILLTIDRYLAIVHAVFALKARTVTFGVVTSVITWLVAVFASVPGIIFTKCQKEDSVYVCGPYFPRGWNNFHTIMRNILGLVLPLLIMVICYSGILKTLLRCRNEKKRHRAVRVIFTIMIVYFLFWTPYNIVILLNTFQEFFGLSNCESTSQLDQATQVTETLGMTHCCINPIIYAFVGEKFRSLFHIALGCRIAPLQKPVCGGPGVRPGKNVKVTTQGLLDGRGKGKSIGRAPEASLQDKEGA
Method: Receptor affinity in a CCR-2 binding assay was determined by measuring inhibition of ^125I-MCP-1 to the endogenous CCR-2 receptor on various cell types including monocytes, THP-1 cells, or after heterologous expression of the cloned receptor in eukaryotic cells. The cells were suspended in binding buffer (50 mM HEPES, pH 7.2,5 mM MgCl2, 1 mM CaCl2, and 0.50% BSA) with and added to test compound or DMSO and ^125I-MCP-1 at room temperature for 1 h to allow binding. The cells were then collected on GFB filters, washed with 25 mM HEPES buffer containing 500 mM NaCl and cell bound ^125I-MCP-1 was quantified.

SMILES | parent compound recovered after storage [1] [%] | relative activity of cis vs trans isomer (CCR-2 receptor)
CC(C)[C@]1(C(=O)N2CCc3ccc(C(F)(F)F)cc3C2)CC[C@@H](NC2CCOCC2F)C1 (some centres unmarked) [Example 96] | 60 | 
CSC1(C(=O)N2CCc3ccc(C(F)(F)F)cc3C2)CC[C@@H](NC2CCOCC2)C1 (some centres unmarked) [Example 3] |  | more active
